Data taken from publication PMC8397634 (Journal of Natural Medicines, 2021).

Assays:
α4β2 nAChRs [1] = target: T1, α4β2 nAChRs (Homo sapiens, UniProt P17787+P43681); test: In vitro α4β2 nAChR radioligand displacement binding assay; design: host or cells: SH-SY5Y cells (human recombinant), membrane preparation; conditions: 10 µM single concentration; effect greater than 50% considered significant
Description: (§1) All binding and functional assays for molecular target characterization were conducted by Eurofins Cerep SA (Celle-Lévescault, France) and Eurofins Panlabs Discovery Services Taiwan, Ltd. (New Taipei City, Taiwan) using their standard in vitro binding and functional assays (Online Source 2). The radioligand displacement binding assays employed the gold-standard filtration method using membrane preparations from stable cell lines expressing human or rodent target proteins to determine the interaction of the compounds with specific receptors, channels, and transporters. For this purpose, the competitive binding of test compounds against a [^125I]-, [^3H]-, or [^35S]-labeled agonist and/or antagonist was determined. The specific list of radiolabeled ligands and experimental conditions are summarized in Online Source 2. A single concentration of each compound (10 µM in 0.1% DMSO) was used for the screen. […] Negative values were considered to be an artifact arising from, for example, compounds interfering with the assay readout.
(§2) Assay Source Ligand Conc. Kd Non Specific Incubation Detection Bibl.

[2] = Brain bioavailability assay in zebrafish (UPLC-HRMS of brain homogenate); assay type: in vivo, Danio rerio; conditions: both sexes, zebrafish (Danio rerio), in vivo, 1 mg/L; zebrafish brain after 20-min exposure; linear relationship assumed; mean ± SEM; read-out: Relative brain level per 1 mg/L compound
Description: Four fish (2 males and 2 females) per compound were used to determine the brain bioavailability of the compounds. Immediately after the 20-min compound treatment, the zebrafish were rinsed briefly to remove excessive compound on their body and terminated with 250 mg/L tricaine (CAS No. 886-86-2; Sigma). The fish were decapitated at the level of the gills using a surgical knife. The head was turned dorsal side down, and soft tissue was removed from the ventral side of the skull until the base of the skull was exposed. The skull was broken open and the bone from the ventral side of the brain was removed. The brain was then placed in a microcentrifuge tube, weighed, snap-frozen in liquid nitrogen, and stored at – 80 °C until the analysis.
Briefly, on the day of analysis, the brain samples were defrosted, resuspended in a methanol solution (2:1 [v/v] methanol:MilliQ water), and homogenized with vigorous agitation and ultrasonication (5 min each). The homogenate was centrifuged at 15,000 × rpm for 10 min, and the supernatant was analyzed using a UPLC-Q Exactive Orbitrap-HRMS system (Thermo Fisher Scientific™, Bremen, Germany). Chromatographic separation was achieved on a Synergi™ 4-µm Hydro-RP 80 Å, L.C. Column (250 × 4.6 mm; Phenomenex Inc., Torrance, CA, USA) with 0.1% formic acid in water (mobile phase A) and 0.1% formic acid in acetonitrile (mobile phase B). A gradient method at a 500 µL/min flow rate was applied as follows: (1) 5% B for 1 min, and (2) increase to 95% B over 7 min and hold for 2 min. The injection volume was 5 μL. The mass spectrometer was operated in electrospray positive mode (ESI, Thermo Fisher Scientific), while data acquisition was performed using the parallel reaction monitoring (PRM) and full scan modes. The source settings were set as follows: sheath gas flow rate = 60 psi; aux gas flow rate = 20 arbitrary units; spray voltage = 3.5 kV; capillary temperature = 280 °C; and sweep gas flow rate = 1. The full scan mode parameters were set as follows: resolution = 35,000 FWHM at 200 m/z; AGC target = 1E6; maximum injection time = 110 ms; and scan range = 100–350 m/z. The chromatographic and Orbitrap MS parameters for PRM analysis were the same as those in the full scan mode, except for: AGC target = 2E5; maximum IT = 60 ms; and resolution = 17,500 FWHM at 200 m/z. The XCalibur™ v4.0.27.19 software (Thermo Fisher Scientific) and TraceFinder™ v4.1 Forensic (Thermo Fisher Scientific, San José, CA, USA) were used for system control and data processing, respectively. The Q Exactive 2.8 SP 1 software (Thermo Fisher Scientific) was used to control the mass spectrometer.

[3] = tested on: zebrafish (Danio rerio; strain AB)
Description: The NTT conditions closely matched the most commonly used conditions described by. In brief, adult male and female wild-type zebrafish were treated with the compounds for 20 min in a final volume of 50 mL in a 250-mL treatment beaker, one fish at a time. The fish were briefly rinsed in fresh system water, and then immediately transferred to a trapezoidal tank (14.6-cm height × 5.5-cm width × 27.9-cm top length and × 23.6-cm bottom length) filled with 1.5 L system water. The behavior of the fish was monitored for the next 5 min using the Noldus EthoVision XT system (Wageningen, Netherlands), with the camera placed approximately 1 m from the test tank. The tanks were uniformly illuminated from above at approximately 200 lx, reported to be the optimal illumination condition for NTT [23]. Background noise was kept at a minimum during the test. All experimental parameters were monitored closely and kept as consistent as possible throughout the study. The part of the tank filled with water (11.5-cm height) was virtually divided into top, center, and bottom of equal heights (approximately 3.8 cm per segment) for the analyses. The average time spent at the top and bottom portions of the tank was analyzed to determine the anxiety-like behavior of fish. The average total distance traveled and freezing time (as defined by a complete cessation of movement except for gills and eyes) were calculated to determine the effects of the compounds on the general behavior of fish. The analyses were conducted for 1-min time bins. To account for any day-to-day variability in fish behavior, fish treated with vehicle were tested on the same day as the compounds. […] A minimum of 12 fish (6 females and 6 males) per condition were used for the study. The actual sample size per condition is indicated in Online Resource 1. […] The experimenters were blind to the test conditions. The NTT was validated with buspirone, a clinical anxiolytic drug, as previously described.
If not, the concentration was reduced until no obvious signs of tolerability problems were observed. […] The concentrations were calculated based on the free base molecular weight.
Two-way repeated measures analysis of variance (ANOVA) with Dunnett post hoc was used for the 1-min binned analysis of the zebrafish NTT data. Treatment was one factor, and time was the second factor. […] Thus, male and female datasets were combined for the final analyses. […] The EC50 values were determined by applying the nonlinear regression analysis. All analyses were conducted using GraphPad Prism v8.2.1 (GraphPad Software, San Diego, CA, USA).

[4] = tested on: other molecular targets (175 in vitro binding and enzymatic assays); test: In vitro molecular target profiling (175 binding and enzymatic assays); conditions: 10 µM single concentration; 175 assays; effect greater than 50% considered significant
Description: as §1
3.1. Experimental Conditions
In Vitro Pharmacology: Binding Assays
as §2

α7 nAChR = conditions: ref 2 (Alijevic, et al.); cited from earlier work
α4β2 nAChRs [5] = target: T1, α4β2 nAChRs; test: In vitro nAChR functional assay (automated patch-clamp, CHO cells); assay type: cell-based; conditions: CHO, read-out: % activation of α4β2 nAChR (normalized to nicotine)
Description: Electrophysiological responses were recorded using an automated patch-clamp Patchliner Octo® system (Nanion Technologies, Munich, Germany) equipped with two EPC-10 Quadro patch-clamp amplifiers (HEKA Elektronik, Lambrecht, Germany) as described previously. Chinese hamster ovarian (CHO) cells stably expressing human α4β2 nAChRs (Charles River Laboratories, Wilmington, MA, USA) were used. All experiments were performed at room temperature (24 °C) and repeated at least three times. Data were analyzed using Patchmaster software (HEKA Elektronik). Offline data analysis was performed in Apache OpenOffice™ (v4.1.2; […]). Igor Pro software (v6.2.2.2; WaveMetrics, Lake Oswego, OR, USA) was used to determine EC50 values. […] The average values were then fitted to the Hill equation: I=Baseline+X^∧nH(Imax-Baseline)/X^∧nH+EC50^∧nH, where I is the current response, Baseline is the minimal current response, X is the agonist concentration, nH is the Hill coefficient, Imax is the maximal current, and EC50 is the agonist concentration producing half-maximal activation. […]

muscle-type nAChR = target: T2, muscle-type nAChR (Homo sapiens, UniProt P02708+P07510+Q07001); test: Muscle-type nAChR radioligand binding (target profiling); conditions: 10 µM single concentration; effect greater than 50% considered significant
T2 construct: TE671 cells; host or cells: TE671 cells (endogenous)
T2 sequence (P02708 21-457): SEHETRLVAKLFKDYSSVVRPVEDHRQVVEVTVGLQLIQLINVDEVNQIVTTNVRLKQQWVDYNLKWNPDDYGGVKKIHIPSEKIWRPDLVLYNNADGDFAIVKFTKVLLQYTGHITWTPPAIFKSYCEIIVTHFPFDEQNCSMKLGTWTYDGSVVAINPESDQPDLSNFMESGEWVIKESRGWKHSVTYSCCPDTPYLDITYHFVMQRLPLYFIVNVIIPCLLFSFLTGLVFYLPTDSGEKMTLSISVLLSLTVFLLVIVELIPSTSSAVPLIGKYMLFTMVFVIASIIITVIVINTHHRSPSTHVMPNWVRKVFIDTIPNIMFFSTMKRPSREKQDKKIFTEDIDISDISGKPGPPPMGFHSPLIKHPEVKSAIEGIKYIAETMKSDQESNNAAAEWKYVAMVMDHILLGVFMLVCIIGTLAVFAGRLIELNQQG
T2 sequence (Q07001 22-517): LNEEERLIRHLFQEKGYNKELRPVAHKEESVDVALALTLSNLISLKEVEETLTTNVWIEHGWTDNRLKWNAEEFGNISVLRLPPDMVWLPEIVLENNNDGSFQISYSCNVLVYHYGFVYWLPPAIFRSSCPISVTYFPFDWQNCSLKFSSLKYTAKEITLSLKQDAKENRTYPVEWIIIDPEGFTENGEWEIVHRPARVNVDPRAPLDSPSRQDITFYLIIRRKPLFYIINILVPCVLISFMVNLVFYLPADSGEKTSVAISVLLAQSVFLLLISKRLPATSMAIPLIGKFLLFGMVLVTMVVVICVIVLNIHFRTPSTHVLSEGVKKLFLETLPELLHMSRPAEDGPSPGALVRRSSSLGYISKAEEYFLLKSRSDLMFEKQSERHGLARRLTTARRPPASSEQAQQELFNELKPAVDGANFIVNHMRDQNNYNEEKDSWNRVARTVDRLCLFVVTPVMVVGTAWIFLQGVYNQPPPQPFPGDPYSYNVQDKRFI
T2 sequence (P07510 23-517): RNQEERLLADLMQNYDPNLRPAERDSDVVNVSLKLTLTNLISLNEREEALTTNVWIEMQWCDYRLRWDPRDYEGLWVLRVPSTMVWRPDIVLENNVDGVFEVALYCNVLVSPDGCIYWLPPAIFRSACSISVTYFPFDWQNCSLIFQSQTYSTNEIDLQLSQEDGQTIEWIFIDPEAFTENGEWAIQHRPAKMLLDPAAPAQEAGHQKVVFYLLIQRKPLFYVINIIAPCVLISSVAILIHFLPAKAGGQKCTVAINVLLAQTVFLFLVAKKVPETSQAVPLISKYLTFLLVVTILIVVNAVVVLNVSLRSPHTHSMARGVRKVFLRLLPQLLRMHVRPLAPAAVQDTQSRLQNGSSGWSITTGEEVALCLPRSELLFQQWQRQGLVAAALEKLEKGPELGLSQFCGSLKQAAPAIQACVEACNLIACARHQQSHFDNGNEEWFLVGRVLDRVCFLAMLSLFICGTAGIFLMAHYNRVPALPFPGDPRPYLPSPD
Description: as §1, §2

T1 sequence (P43681 29-627 limits assumed): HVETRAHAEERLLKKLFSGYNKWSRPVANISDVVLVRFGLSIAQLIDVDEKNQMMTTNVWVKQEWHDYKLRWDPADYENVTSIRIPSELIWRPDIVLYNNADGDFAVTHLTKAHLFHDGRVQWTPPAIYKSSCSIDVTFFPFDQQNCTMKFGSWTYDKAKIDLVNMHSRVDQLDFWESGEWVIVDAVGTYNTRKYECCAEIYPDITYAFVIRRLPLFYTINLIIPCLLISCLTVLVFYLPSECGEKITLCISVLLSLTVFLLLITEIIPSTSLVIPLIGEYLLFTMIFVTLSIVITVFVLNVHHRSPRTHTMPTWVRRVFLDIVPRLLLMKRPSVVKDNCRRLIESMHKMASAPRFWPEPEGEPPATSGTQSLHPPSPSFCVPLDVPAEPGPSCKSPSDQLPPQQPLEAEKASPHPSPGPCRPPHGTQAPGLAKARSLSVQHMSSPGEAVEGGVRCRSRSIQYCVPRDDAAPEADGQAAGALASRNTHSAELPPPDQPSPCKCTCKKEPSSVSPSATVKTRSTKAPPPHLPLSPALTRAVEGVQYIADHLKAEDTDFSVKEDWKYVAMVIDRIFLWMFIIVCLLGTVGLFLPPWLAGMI
T1 sequence (P17787 26-502): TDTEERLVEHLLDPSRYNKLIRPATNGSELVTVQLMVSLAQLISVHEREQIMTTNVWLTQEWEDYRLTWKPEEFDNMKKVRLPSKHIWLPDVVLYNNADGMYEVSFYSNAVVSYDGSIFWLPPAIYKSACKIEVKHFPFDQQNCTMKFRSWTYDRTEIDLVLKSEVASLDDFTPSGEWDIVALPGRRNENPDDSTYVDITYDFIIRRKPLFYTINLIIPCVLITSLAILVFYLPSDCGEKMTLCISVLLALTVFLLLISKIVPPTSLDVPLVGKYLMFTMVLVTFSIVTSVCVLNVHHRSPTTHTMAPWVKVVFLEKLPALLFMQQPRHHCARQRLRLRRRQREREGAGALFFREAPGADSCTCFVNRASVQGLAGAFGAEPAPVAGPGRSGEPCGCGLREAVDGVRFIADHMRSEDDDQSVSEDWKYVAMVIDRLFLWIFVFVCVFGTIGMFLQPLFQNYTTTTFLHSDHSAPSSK

Structure (SMILES): C1=CCC(c2cccnc2)NC1 (racemic) [Anatabine, ( ±)-Anatabine]
- Binding to α4β2 nAChR in target profiling (α4β2 nAChRs [1]): specific binding
- concentration at 20 min [2]: 440 ± 150 ng/g
- Freezing time during NTT ([3]; 0.3 mg/L): increased the freezing time during the first 3 min
- Concentration effective in reducing anxiety-like behavior in NTT ([3]; 20-min treatment): 10 mg/L
- Time spent at the bottom of the tank during NTT ([3]; highest concentration tested (10 mg/L), 20-min treatment): significantly decreased the time spent at the bottom
- Total distance traveled during NTT ([3]; lowest (0.3 mg/L) and highest (10 mg/L) concentrations): slight but significant reduction in the total distance traveled
- Binding to or regulation of other molecular targets [4]: did not bind or regulate the activities of other molecular targets
- α7 nAChR agonist activity (α7 nAChR): weak α7 nAChR agonist
- Emax (α4β2 nAChRs [5]): 80%
- Binding to muscle-type nAChR in target profiling (muscle-type nAChR): specific binding
